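These data come from cells grown in 96-well plates and exposed to compound for 48 hours at five concentrations. Here, GI50 denotes the concentration required for 50% inhibition of growth. TGI: total growth inhibition.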
What was measured:
Assay in all cases: NCI anticancer screen, dose series, 48 h
786-0 renal = system: 786-0 renal
A498 renal = system: A498 renal
A549 NSCLC = system: A549 NSCLC
ACHN renal = system: ACHN renal
BT-549 breast = system: BT-549 breast
CAKI-1 renal = system: CAKI-1 renal
CCRF-CEM leukemia = system: CCRF-CEM leukemia
COLO 205 colon = system: COLO 205 colon
DU-145 prostate = system: DU-145 prostate
HCC-2998 colon = system: HCC-2998 colon
HCT-116 colon = system: HCT-116 colon
HCT-15 colon = system: HCT-15 colon
HL-60(TB) leukemia = system: HL-60(TB) leukemia
HOP-62 NSCLC = system: HOP-62 NSCLC
HOP-92 NSCLC = system: HOP-92 NSCLC
HS 578T breast = system: HS 578T breast
HT29 colon = system: HT29 colon
IGROV1 ovarian = system: IGROV1 ovarian
K-562 leukemia = system: K-562 leukemia
KM12 colon = system: KM12 colon
LOX IMVI melanoma = system: LOX IMVI melanoma
M14 melanoma = system: M14 melanoma
MALME-3M melanoma = system: MALME-3M melanoma
MCF7 breast = system: MCF7 breast
MDA-MB-231 breast = system: MDA-MB-231 breast
MDA-MB-435 = system: MDA-MB-435
MOLT-4 leukemia = system: MOLT-4 leukemia
NCI-H226 lung = system: NCI-H226 lung
NCI-H23 lung = system: NCI-H23 lung

Cn1cc(C2=C(Oc3ccccc3)C(=O)NC2=O)c2ccccc21
GI50 (786-0 renal): > 25 µM
TGI (786-0 renal): > 25 µM
GI50 (A498 renal): > 25 µM
TGI (A498 renal): > 25 µM
GI50 (A549 NSCLC): > 25 µM
TGI (A549 NSCLC): > 25 µM
GI50 (ACHN renal): > 25 µM
TGI (ACHN renal): > 25 µM
GI50 (BT-549 breast): > 25 µM
TGI (BT-549 breast): > 25 µM
GI50 (CAKI-1 renal): > 25 µM
TGI (CAKI-1 renal): > 25 µM
GI50 (CCRF-CEM leukemia): > 25 µM
TGI (CCRF-CEM leukemia): > 25 µM
GI50 (COLO 205 colon): > 25 µM
TGI (COLO 205 colon): > 25 µM
GI50 (DU-145 prostate): > 25 µM
TGI (DU-145 prostate): > 25 µM
GI50 (HCC-2998 colon): > 25 µM
TGI (HCC-2998 colon): > 25 µM
GI50 (HCT-116 colon): > 25 µM
TGI (HCT-116 colon): > 25 µM
GI50 (HCT-15 colon): > 25 µM
TGI (HCT-15 colon): > 25 µM
GI50 (HL-60(TB) leukemia): > 25 µM
TGI (HL-60(TB) leukemia): > 25 µM
GI50 (HOP-62 NSCLC): > 17.8 µM
TGI (HOP-62 NSCLC): > 25 µM
GI50 (HOP-92 NSCLC): 6.32 µM
TGI (HOP-92 NSCLC): > 25 µM
GI50 (HS 578T breast): > 25 µM
TGI (HS 578T breast): > 25 µM
GI50 (HT29 colon): > 25 µM
TGI (HT29 colon): > 25 µM
GI50 (IGROV1 ovarian): > 25 µM
TGI (IGROV1 ovarian): > 25 µM
GI50 (K-562 leukemia): > 25 µM
TGI (K-562 leukemia): > 25 µM
GI50 (KM12 colon): > 25 µM
TGI (KM12 colon): > 25 µM
GI50 (LOX IMVI melanoma): > 25 µM
TGI (LOX IMVI melanoma): > 25 µM
GI50 (M14 melanoma): > 25 µM
TGI (M14 melanoma): > 25 µM
GI50 (MALME-3M melanoma): > 25 µM
TGI (MALME-3M melanoma): > 25 µM
GI50 (MCF7 breast): > 25 µM
TGI (MCF7 breast): > 25 µM
GI50 (MDA-MB-231 breast): > 19.3 µM
TGI (MDA-MB-231 breast): > 25 µM
GI50 (MDA-MB-435): > 25 µM
TGI (MDA-MB-435): > 25 µM
GI50 (MOLT-4 leukemia): > 25 µM
TGI (MOLT-4 leukemia): > 25 µM
GI50 (NCI-H226 lung): > 25 µM
TGI (NCI-H226 lung): > 25 µM
GI50 (NCI-H23 lung): > 25 µM
